# From US9085584B2, “Substituted pyrido[3,2-E][1,2,4]-triazolo[4,3-A]pyrazines for the treatment of central nervous system disorders” (Boehringer Ingelheim International GmbH, priority 2012, dated 2015)
# Assay: Metabolic stability in pooled liver microsomes
# Format: in vitro ADME, human
# Conditions: human liver microsomes, 1 μM test compound, 37° C.
# Experimental: The metabolic stability of the compounds according to the invention has been investigated as follows:
# The metabolic degradation of the test compound was assayed at 37° C. with pooled liver microsomes from various species. The final incubation volume of 100 μl per time point contains TRIS buffer pH 7.6 at room temperature (0.1 M), magnesium chloride (5 mM), microsomal protein (1 mg/mL for human and dog, 0.5 mg/mL for other species) and the test compound at a final concentration of 1 μM. Following a short preincubation period at 37° C., the reactions were initiated by addition of betanicotinamide adenine dinucleotide phosphate, reduced form (NADPH, 1 mM), and terminated by transferring an aliquot into solvent after different time points. […] The half-life was determined by the slope of the semi-logarithmic plot of the concentration-time profile.
row,Compound,Half-life - t½ [h]
1,Cc1ccc(OC2COCC2O)cc1-c1nnc2c(C)nc3ccc(C4CC4)nc3n12 (racemic) [Example 57],2.17
2,Cc1nc2ccc(C3CC3)nc2n2c(-c3cc(OC4COCC4O)ccc3Cl)nnc12 (racemic) [Example 58a],2.17
3,Cc1ccc(C2(O)CCOCC2O)cc1-c1nnc2c(C)nc3ccc(C4CC4)nc3n12 (racemic) [Example 104],2.17
4,"Cc1nc2cccnc2n2c(-c3cc(OC4COCC4O)ccc3Cl)nnc12 (single isomer, unassigned) [Example 55a]",2.17
5,"Cc1nc2ccc(C3CC3)nc2n2c(-c3cc(OC4COCC4O)ccc3Cl)nnc12 (single isomer, unassigned) [Example 56b]",1.03
6,"Cc1ccc(OC2COCC2O)cc1-c1nnc2c(C)nc3ccc(C4CC4)nc3n12 (single isomer, unassigned) [Example 57a]",2.17
7,"Cc1nc2cccnc2n2c(-c3cc(OC4COCCC4O)ccc3Cl)nnc12 (single isomer, unassigned) [Example 58]",2.17
8,"Cc1nc2ccc(C3CC3)nc2n2c(-c3cc(OC4COCC4O)ccc3Cl)nnc12 (single isomer, unassigned) [Example 58b]",2.17
9,"Cc1nc2ccc(C3CC3)nc2n2c(-c3cc(OC4COCC4O)ccc3Cl)nnc12 (single isomer, unassigned) [Example 58c]",2.17
10,"Cc1nc2cccnc2n2c(-c3cc(C4(O)CCOC4)ccc3Cl)nnc12 (single isomer, unassigned) [Example 99]",2.17
11,"Cc1ccc(C2(O)CCOCC2O)cc1-c1nnc2c(C)nc3ccc(C4CC4)nc3n12 (single isomer, unassigned) [Example 104a]",2.17
12,Cc1nc2cccnc2n2c(-c3cc(O)ccc3Cl)nnc12 [Example 1],2.17
13,Cc1nc2cccnc2n2c(-c3cc(OCCCO)ccc3Cl)nnc12 [Example 13],2.17
14,Cc1nc2cccnc2n2c(-c3cc(OC[C@@H](C)O)ccc3Cl)nnc12 [Example 17],2.17
15,Cc1nc2cccnc2n2c(-c3cc(OC[C@H](C)O)ccc3Cl)nnc12 [Example 18],2.17
16,Cc1nc2cccnc2n2c(-c3cc(OC4CCOCC4)ccc3Cl)nnc12 [Example 20],2.17
17,Cc1nc2cccnc2n2c(-c3cc(OC4CCC(F)(F)CC4)ccc3Cl)nnc12 [Example 21],2.17
18,Cc1ccc2nc(C)c3nnc(-c4cc(OC5CCC(F)(F)CC5)ccc4Cl)n3c2n1 [Example 30],2.17
19,Cc1ccc2nc(C)c3nnc(-c4cc(OC5CCOCC5)ccc4Cl)n3c2n1 [Example 32],2.17
20,Cc1ccc2nc(C)c3nnc(-c4cc(OC[C@H](C)O)ccc4Cl)n3c2n1 [Example 34],2.17
21,Cc1ccc2nc(C)c3nnc(-c4cc(OC[C@@H](C)O)ccc4Cl)n3c2n1 [Example 35],2.17
22,Cc1ccc2nc(C)c3nnc(-c4cc(O[C@@H]5CCOC5)ccc4Cl)n3c2n1 [Example 42],2.17
23,Cc1ccc2nc(C)c3nnc(-c4cc(O[C@H]5CCOC5)ccc4Cl)n3c2n1 [Example 43],2.17
24,Cc1nc2cccnc2n2c(-c3cc(OCC(C)(C)O)ccc3Cl)nnc12 [Example 44],2.17

row,Compound,Half-life - t½ [h]
1,Cc1nc2ccc(C3CC3)nc2n2c(-c3cc(OCC(C)(C)O)ccc3Cl)nnc12 [Example 45],2.17
2,Cc1ccc2nc(C)c3nnc(-c4cc(OCC(C)(C)O)ccc4Cl)n3c2n1 [Example 46],2.17
3,Cc1nc2ccc(C3CC3)nc2n2c(-c3cc(OCC(C)(C)O)ccc3F)nnc12 [Example 47],2.17
4,Cc1ccc(OCC(C)(C)O)cc1-c1nnc2c(C)nc3ccc(C4CC4)nc3n12 [Example 48],2.17
5,Cc1nc2cccnc2n2c(-c3cc(OCC4(O)CCC4)ccc3Cl)nnc12 [Example 49],2.17
6,Cc1ccc(OCC2(O)CCC2)cc1-c1nnc2c(C)nc3cccnc3n12 [Example 50],2.17
7,Cc1ccc(OCC(C)(C)O)cc1-c1nnc2c(C)nc3ccc(C(C)C)nc3n12 [Example 51],2.17
8,Cc1nc2ccc(C(C)C)nc2n2c(-c3cc(OCC(C)(C)O)ccc3F)nnc12 [Example 52],2.17
9,Cc1nc2cc(C(C)C)cnc2n2c(-c3cc(OCC(C)(C)O)ccc3Cl)nnc12 [Example 54],2.17
10,Cc1ccc2nc(C)c3nnc(-c4cc(C(O)C(C)C)ccc4Cl)n3c2n1 (stereo not drawn) [Example 59],0.817
11,CCC(O)c1ccc(Cl)c(-c2nnc3c(C)nc4ccc(C)nc4n23)c1 (stereo not drawn) [Example 62],2.17
12,Cc1ccc2nc(C)c3nnc(-c4cc(C(C)O)ccc4Cl)n3c2n1 (stereo not drawn) [Example 63],2.17
13,Cc1nc2cccnc2n2c(-c3cc(CCC(C)(C)O)ccc3Cl)nnc12 [Example 64],2.17
14,Cc1ccc(CCC(C)(C)O)cc1-c1nnc2c(C)nc3cccnc3n12 [Example 67],2.17
15,Cc1nc2cccnc2n2c(-c3cc(C(C)(C)O)ccc3Cl)nnc12 [Example 70],2.17
16,Cc1ccc2nc(C)c3nnc(-c4cc(C(C)(C)O)ccc4Cl)n3c2n1 [Example 71],2.17
17,Cc1nc2ccc(C3(C)CC3)nc2n2c(-c3cc(C(C)(C)O)ccc3F)nnc12 [Example 72],2.17
18,Cc1nc2ccc(C3CC3)nc2n2c(-c3cc(C(C)(C)O)ccc3F)nnc12 [Example 76],2.17
19,Cc1nc2cccnc2n2c(-c3cc(CC(C)(C)O)ccc3Cl)nnc12 [Example 82],2.17
20,Cc1nc2ccc(C3CC3)nc2n2c(-c3cc(C(C)(C)O)ccc3Cl)nnc12 [Example 85],2.17
21,Cc1nc2cccnc2n2c(-c3cc(C4(O)CCC4)ccc3Cl)nnc12 [Example 87],2.17
22,Cc1ccc2nc(C)c3nnc(-c4cc(C5(O)CCC5)ccc4Cl)n3c2n1 [Example 89],2.17
23,Cc1nc2cccnc2n2c(-c3cc(C4(O)CCOCC4)ccc3Cl)nnc12 [Example 93],2.17
24,Cc1ccc2nc(C)c3nnc(-c4cc(C5(O)CCC5)ccc4C)n3c2n1 [Example 102],2.17

# Same assay, conditions: human, pooled liver microsomes, pH 7.6, human liver microsomes, 1 μM test compound, 37° C.; read-out: Half-life - t½
row,Compound,half-life at 1 μM [h]
1,Cc1nc2ccc(C3CC3)nc2n2c(-c3cc(OC4COCC4O)ccc3Cl)nnc12 (racemic) [Example 56],2
2,"Cc1nc2ccc(C3CC3)nc2n2c(-c3cc(OC4COCC4O)ccc3Cl)nnc12 (single isomer, unassigned) [Example 56a]",1.83
3,"Cc1ccc(OC2COCC2O)cc1-c1nnc2c(C)nc3ccc(C4CC4)nc3n12 (single isomer, unassigned) [Example 57b]",1.55
4,Cc1nc2ccc(C3CC3)nc2n2c(-c3cc(O)ccc3F)nnc12 [Example 5],0.717
5,Cc1ccc(O)cc1-c1nnc2c(C)nc3ccc(C4CC4)nc3n12 [Example 6],1.1
6,Cc1nc2ccc(C3CC3)nc2n2c(-c3cc(O)ccc3Cl)nnc12 [Example 9],0.683
7,Cc1nc2ccc(C(F)(F)F)nc2n2c(-c3cc(O)ccc3Cl)nnc12 [Example 12],1.05
8,Cc1nc2ccc(C3CC3)nc2n2c(-c3cc(OC4CCOCC4)ccc3Cl)nnc12 [Example 32a],0.6
9,CCCC(O)c1ccc(Cl)c(-c2nnc3c(C)nc4ccc(C)nc4n23)c1 (stereo not drawn) [Example 61],1.08
10,Cc1nc2ccc(C3CC3)nc2n2c(-c3cc(CCC(C)(C)O)ccc3F)nnc12 [Example 66],0.95
11,Cc1ccc(CCC(C)(C)O)cc1-c1nnc2c(C)nc3ccc(C4CC4)nc3n12 [Example 68],0.65
12,Cc1nc2ccc(C3CC3)nc2n2c(-c3cc(CCC(C)(C)O)ccc3Cl)nnc12 [Example 69],0.883
13,Cc1nc2ccc(C(C)C)nc2n2c(-c3cc(C(C)(C)O)ccc3Cl)nnc12 [Example 77],1.5
14,Cc1ccc(C(C)(C)O)cc1-c1nnc2c(C)nc3ccc(C(C)C)nc3n12 [Example 78],1.32
15,Cc1nc2ccc(C3CC3)nc2n2c(-c3cc(CC(C)(C)O)ccc3F)nnc12 [Example 80],1.38
16,Cc1ccc(CC(C)(C)O)cc1-c1nnc2c(C)nc3ccc(C4CC4)nc3n12 [Example 81],0.433
17,Cc1nc2ccc(C3CC3)nc2n2c(-c3cc(CC(C)(C)O)ccc3Cl)nnc12 [Example 83],1.67
18,Cc1nc2ccc(C3CC3)nc2n2c(-c3cc(C4(O)CCC4)ccc3F)nnc12 [Example 84],0.65
19,Cc1nc2ccc(C3CC3)nc2n2c(-c3cc(C4(O)CCC4)ccc3Cl)nnc12 [Example 88],0.883
20,Cc1nc2ccc(C(C)C)nc2n2c(-c3cc(C4(O)CCC4)ccc3Cl)nnc12 [Example 91],0.467
21,Cc1nc2ccc(C(C)C)nc2n2c(-c3cc(C4(O)CCC4)ccc3F)nnc12 [Example 92],0.383
22,Cc1nc2ccc(C3CC3)nc2n2c(-c3cc(C4(O)CCOCC4)ccc3Cl)nnc12 [Example 94],0.633
23,Cc1nc2ccc(C(F)(F)F)nc2n2c(-c3cc(C4(O)CCOCC4)ccc3Cl)nnc12 [Example 96],1.83
24,Cc1nc2ccc(C3CC3)nc2n2c(-c3cc(C(C)(C)CO)ccc3F)nnc12 [Example 101],0.367
